Test results from patent US20260176320A1, “MODULATORS OF G-PROTEIN COUPLED RECEPTORS” (priority 2018, published 2026).
Read-outs that look alike come from different tables or passages of the source.

How the values were obtained:
Assay type in all cases: cell-based
GLP-1R [1] = target: T1, GLP-1R (Homo sapiens, UniProt P43220); experiment: PathHunter β-arrestin assay
Procedure, shortened: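 Following a 90 min agonist exposure at 37 °C in 0.2% BSA medium, β-arrestin coupling was detected by chemiluminescence after 3 h at room temperature.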

GIP-R = target: T2, GIP-R (Homo sapiens, UniProt P48546); experiment: HitHunter cAMP assay (GIP-R); details: cAMP; for Emax: read-out: (Emax) GIP-R
T2 sequence (P48546 22-466): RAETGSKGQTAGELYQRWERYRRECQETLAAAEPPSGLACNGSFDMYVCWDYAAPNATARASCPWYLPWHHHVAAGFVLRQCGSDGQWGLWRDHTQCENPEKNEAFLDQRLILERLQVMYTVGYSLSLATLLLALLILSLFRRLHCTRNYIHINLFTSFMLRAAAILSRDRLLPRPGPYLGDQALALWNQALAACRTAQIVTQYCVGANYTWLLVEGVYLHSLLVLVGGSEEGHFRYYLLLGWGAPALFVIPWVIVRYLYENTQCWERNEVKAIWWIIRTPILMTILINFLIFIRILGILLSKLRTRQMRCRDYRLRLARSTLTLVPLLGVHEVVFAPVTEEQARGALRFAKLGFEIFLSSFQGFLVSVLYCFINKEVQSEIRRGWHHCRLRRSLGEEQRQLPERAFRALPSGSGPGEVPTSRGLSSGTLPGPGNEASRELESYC
Procedure, shortened: (§1)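 Duplicate 22-point, 2-fold agonist titrations applied to receptor-expressing suspension cells in IBMX-containing HBSS; 30 min RT stimulation. Read: luminescent cAMP immunocompetition after O/N dark incubation.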

GLP-1R [2] = target: T1, GLP-1R; experiment: HitHunter cAMP assay (GLP-1R); details: cAMP; for Emax: read-out: (Emax) GLP-1R
Procedure, shortened: as §1

[3] = PathHunter β-arrestin assay, read-out: β-arrestin activity EC50
[4] = Table 3, read-out: EC50 GIP-R/nM
[5] = Table 3A, read-out: EC50 GIP-R/nM
[6] = Table 3, read-out: EC50 GLP-1R/nM
[7] = Table 3A, read-out: EC50 GLP-1R/nM

T1 sequence (P43220 24-463): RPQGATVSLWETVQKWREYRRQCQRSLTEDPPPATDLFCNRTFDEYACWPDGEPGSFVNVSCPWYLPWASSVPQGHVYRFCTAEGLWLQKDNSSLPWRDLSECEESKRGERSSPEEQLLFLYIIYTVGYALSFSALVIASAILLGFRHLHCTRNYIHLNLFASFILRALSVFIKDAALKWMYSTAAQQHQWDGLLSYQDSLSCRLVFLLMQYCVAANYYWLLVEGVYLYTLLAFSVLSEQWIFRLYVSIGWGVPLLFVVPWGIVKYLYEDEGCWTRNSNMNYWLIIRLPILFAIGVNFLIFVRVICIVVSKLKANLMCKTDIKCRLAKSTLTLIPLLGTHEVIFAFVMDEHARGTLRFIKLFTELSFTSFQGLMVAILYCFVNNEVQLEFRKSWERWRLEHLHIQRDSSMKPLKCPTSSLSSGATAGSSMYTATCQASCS

## CCCCCCCCCCCCCCCC(=O)N[C@@H](CCC(=O)NCCCC[C@H](NC(=O)[C@H](CO)NC(=O)[C@@H]1CCCN1C(=O)[C@@H]1CCCN1C(=O)[C@@H]1CCCN1C(=O)[C@H](C)NC(=O)CNC(=O)[C@H](CO)NC(=O)[C@H](CO)NC(=O)[C@@H]1CCCN1C(=O)CNC(=O)CNC(=O)[C@H](C)NC(=O)[C@H](CC(C)C)NC(=O)[C@H](CC(C)C)NC(=O)[C@H](Cc1c[nH]c2ccccc12)NC(=O)[C@H](CC(N)=O)NC(=O)[C@@H](NC(=O)[C@H](Cc1ccccc1)NC(=O)[C@H](CCC(=O)O)NC(=O)C(C)(C)NC(=O)[C@H](C)NC(=O)[C@H](C)NC(=O)[C@H](CCC(N)=O)NC(=O)[C@H](CCCCN)NC(=O)[C@H](CC(=O)O)NC(=O)[C@H](CC(C)C)NC(=O)[C@H](Cc1ccc(O)cc1)NC(=O)[C@@H](NC(=O)[C@H](CO)NC(=O)[C@H](Cc1ccc(O)cc1)NC(=O)[C@H](CC(=O)O)NC(=O)[C@H](CO)NC(=O)[C@@H](NC(=O)[C@H](Cc1ccccc1)NC(=O)[C@@H](NC(=O)CNC(=O)[C@H](CCC(=O)O)NC(=O)CSCC(=O)NCCN1CC[C@@H](OC)C1=O)[C@@H](C)O)[C@@H](C)O)[C@@H](C)CC)C(C)C)C(N)=O)C(=O)O [Compound 11]
GLP-1R [1]
  EC50: > 1000 nM
GIP-R; EC50 GIP-R/nM, Table 3
  EC50: 1 to 10 nM
GIP-R; EC50 GIP-R/nM, Table 3A
  EC50: 1 to 10 nM
GIP-R; Table 3
  Emax: 39%
GIP-R; Table 3A
  Emax: 39%
GLP-1R [2]; EC50 GLP-1R/nM, Table 3
  EC50: 0.1 to 1 nM
GLP-1R [2]; EC50 GLP-1R/nM, Table 3A
  EC50: 0.1 to 1 nM
GLP-1R [2]; Table 3
  Emax: 96%
GLP-1R [2]; Table 3A
  Emax: 96%

## CC[C@H](C)[C@H](NC(=O)[C@H](CO)NC(=O)[C@H](Cc1ccc(O)cc1)NC(=O)[C@H](CC(=O)O)NC(=O)[C@H](CO)NC(=O)[C@@H](NC(=O)[C@H](Cc1ccccc1)NC(=O)[C@@H](NC(=O)CNC(=O)[C@H](CCC(=O)O)NC(=O)CSCC(=O)NCCN1C(=O)c2ccc(C)cc2C1=O)[C@@H](C)O)[C@@H](C)O)C(=O)N[C@@H](Cc1ccc(O)cc1)C(=O)N[C@@H](CC(C)C)C(=O)N[C@@H](CC(=O)O)C(=O)N[C@@H](CCCCN)C(=O)N[C@@H](CCC(N)=O)C(=O)N[C@@H](C)C(=O)N[C@@H](C)C(=O)NC(C)(C)C(=O)N[C@@H](CCC(=O)O)C(=O)N[C@@H](Cc1ccccc1)C(=O)N[C@H](C(=O)N[C@@H](CC(N)=O)C(=O)N[C@@H](Cc1c[nH]c2ccccc12)C(=O)N[C@@H](CC(C)C)C(=O)N[C@@H](CC(C)C)C(=O)N[C@@H](C)C(=O)NCC(=O)NCC(=O)N1CCC[C@H]1C(=O)N[C@@H](CO)C(=O)N[C@@H](CO)C(=O)NCC(=O)N[C@@H](C)C(=O)N1CCC[C@H]1C(=O)N1CCC[C@H]1C(=O)N1CCC[C@H]1C(=O)N[C@@H](CO)C(=O)N[C@@H](CCCCN)C(N)=O)C(C)C [Compound 156]
GLP-1R [1]
  EC50: > 1000 nM
GIP-R; EC50 GIP-R/nM, Table 3
  EC50: < 0.1 nM
GIP-R; EC50 GIP-R/nM, Table 3A
  EC50: < 0.1 nM
GIP-R; Table 3
  Emax: 116 to 118%
GIP-R; Table 3A
  Emax: 116 to 118%
GLP-1R [2]; EC50 GLP-1R/nM, Table 3
  EC50: 1 to 10 nM
GLP-1R [2]; EC50 GLP-1R/nM, Table 3A
  EC50: 1 to 10 nM
GLP-1R [2]; Table 3
  Emax: 95 to 100%
GLP-1R [2]; Table 3A
  Emax: 95 to 100%

## CC[C@H](C)[C@H](NC(=O)[C@H](CO)NC(=O)[C@H](Cc1ccc(O)cc1)NC(=O)[C@H](CC(=O)O)NC(=O)[C@H](CO)NC(=O)[C@@H](NC(=O)[C@H](Cc1ccccc1)NC(=O)[C@@H](NC(=O)CNC(=O)[C@H](CCC(=O)O)NC(=O)C(C)(C)C(=O)NCCCN1C(=O)c2ccccc2C1=O)[C@@H](C)O)[C@@H](C)O)C(=O)N[C@@H](Cc1ccc(O)cc1)C(=O)N[C@@H](CC(C)C)C(=O)N[C@@H](CC(=O)O)C(=O)N[C@@H](CCCCN)C(=O)N[C@@H](CCC(N)=O)C(=O)N[C@@H](C)C(=O)N[C@@H](C)C(=O)NC(C)(C)C(=O)N[C@@H](CCC(=O)O)C(=O)N[C@@H](Cc1ccccc1)C(=O)N[C@H](C(=O)N[C@@H](CC(N)=O)C(=O)N[C@@H](Cc1c[nH]c2ccccc12)C(=O)N[C@@H](CC(C)C)C(=O)N[C@@H](CC(C)C)C(=O)N[C@@H](C)C(=O)NCC(=O)NCC(=O)N1CCC[C@H]1C(=O)N[C@@H](CO)C(=O)N[C@@H](CO)C(=O)NCC(=O)N[C@@H](C)C(=O)N1CCC[C@H]1C(=O)N1CCC[C@H]1C(=O)N1CCC[C@H]1C(=O)N[C@@H](CO)C(=O)N[C@@H](CCCCN)C(N)=O)C(C)C [Compound 143]
GLP-1R [1]; [3]
  EC50: > 1000 nM
GIP-R; Table 3
  Emax: 99 to 107%
GIP-R; [4]
  EC50: 1 to 10 nM
GIP-R; Table 3A
  Emax: 99 to 107%
GIP-R; [5]
  EC50: 1 to 10 nM
GLP-1R [2]; Table 3
  Emax: 99 to 108%
GLP-1R [2]; [6]
  EC50: 0.1 to 1 nM
GLP-1R [2]; Table 3A
  Emax: 99 to 108%
GLP-1R [2]; [7]
  EC50: 0.1 to 1 nM

## CCCCCCCCCCCCCCCC(=O)N[C@@H](CCC(=O)NCCCC[C@H](NC(=O)[C@H](CO)NC(=O)[C@@H]1CCCN1C(=O)[C@@H]1CCCN1C(=O)[C@@H]1CCCN1C(=O)[C@H](C)NC(=O)CNC(=O)[C@H](CO)NC(=O)[C@H](CO)NC(=O)[C@@H]1CCCN1C(=O)CNC(=O)CNC(=O)[C@H](C)NC(=O)[C@H](CC(C)C)NC(=O)[C@H](CC(C)C)NC(=O)[C@H](Cc1c[nH]c2ccccc12)NC(=O)[C@H](CC(N)=O)NC(=O)[C@@H](NC(=O)[C@H](Cc1ccccc1)NC(=O)[C@H](CCC(=O)O)NC(=O)C(C)(C)NC(=O)[C@H](C)NC(=O)[C@H](C)NC(=O)[C@H](CCC(N)=O)NC(=O)[C@H](CCCCN)NC(=O)[C@H](CC(=O)O)NC(=O)[C@H](CC(C)C)NC(=O)[C@H](Cc1ccc(O)cc1)NC(=O)[C@@H](NC(=O)[C@H](CO)NC(=O)[C@H](Cc1ccc(O)cc1)NC(=O)[C@H](CC(=O)O)NC(=O)[C@H](CO)NC(=O)[C@@H](NC(=O)[C@H](Cc1ccccc1)NC(=O)[C@@H](NC(=O)CNC(=O)[C@H](CCC(=O)O)NC(=O)CSCC(=O)N(C)CCN1CCCCC1=O)[C@@H](C)O)[C@@H](C)O)[C@@H](C)CC)C(C)C)C(N)=O)C(=O)O [Compound 17]
GLP-1R [1]
  EC50: > 1000 nM
GIP-R; EC50 GIP-R/nM, Table 3
  EC50: 1 to 10 nM
GIP-R; EC50 GIP-R/nM, Table 3A
  EC50: 1 to 10 nM
GIP-R; Table 3
  Emax: 55%
GIP-R; Table 3A
  Emax: 55%
GLP-1R [2]; EC50 GLP-1R/nM, Table 3
  EC50: 0.1 to 1 nM
GLP-1R [2]; EC50 GLP-1R/nM, Table 3A
  EC50: 0.1 to 1 nM
GLP-1R [2]; Table 3
  Emax: 92%
GLP-1R [2]; Table 3A
  Emax: 92%

## CCCCCCCCCCCCCCCC(=O)N[C@@H](CCC(=O)NCCCC[C@H](NC(=O)[C@H](CO)NC(=O)[C@@H]1CCCN1C(=O)[C@@H]1CCCN1C(=O)[C@@H]1CCCN1C(=O)[C@H](C)NC(=O)CNC(=O)[C@H](CO)NC(=O)[C@H](CO)NC(=O)[C@@H]1CCCN1C(=O)CNC(=O)CNC(=O)[C@H](C)NC(=O)[C@H](CC(C)C)NC(=O)[C@H](CC(C)C)NC(=O)[C@H](Cc1c[nH]c2ccccc12)NC(=O)[C@H](CC(N)=O)NC(=O)[C@@H](NC(=O)[C@H](Cc1ccccc1)NC(=O)[C@H](CCC(=O)O)NC(=O)C(C)(C)NC(=O)[C@H](C)NC(=O)[C@H](C)NC(=O)[C@H](CCC(N)=O)NC(=O)[C@H](CCCCN)NC(=O)[C@H](CC(=O)O)NC(=O)[C@H](CC(C)C)NC(=O)[C@](C)(Cc1ccc(O)cc1)NC(=O)[C@@H](NC(=O)[C@H](CO)NC(=O)[C@H](Cc1ccc(O)cc1)NC(=O)[C@H](CC(=O)O)NC(=O)[C@H](CO)NC(=O)[C@@H](NC(=O)[C@H](Cc1ccccc1)NC(=O)[C@@H](NC(=O)CNC(=O)[C@H](CCC(=O)O)NC(=O)CSCC(=O)NCCN1CCCCC1=O)[C@@H](C)O)[C@@H](C)O)[C@@H](C)CC)C(C)C)C(N)=O)C(=O)O [Compound 225]
GLP-1R [1]; [3]
  EC50: > 1000 nM
GIP-R; Table 3A
  Emax: 70 to 80%
GIP-R; [5]
  EC50: 1 to 10 nM
GLP-1R [2]; [7]
  EC50: 0.1 to 1 nM

## CCCCCCCCCCCCCCCC(=O)N[C@@H](CCC(=O)NCCCC[C@H](NC(=O)[C@H](CO)NC(=O)[C@@H]1CCCN1C(=O)[C@@H]1CCCN1C(=O)[C@@H]1CCCN1C(=O)[C@H](C)NC(=O)CNC(=O)[C@H](CO)NC(=O)[C@H](CO)NC(=O)[C@@H]1CCCN1C(=O)CNC(=O)CNC(=O)[C@H](C)NC(=O)[C@H](CC(C)C)NC(=O)[C@H](CC(C)C)NC(=O)[C@H](Cc1c[nH]c2ccccc12)NC(=O)[C@H](CC(N)=O)NC(=O)[C@@H](NC(=O)[C@H](Cc1ccccc1)NC(=O)[C@H](CCC(=O)O)NC(=O)C(C)(C)NC(=O)[C@H](C)NC(=O)[C@H](C)NC(=O)[C@H](CCC(N)=O)NC(=O)[C@H](CCCCN)NC(=O)[C@H](CC(=O)O)NC(=O)[C@H](CC(C)C)NC(=O)[C@H](Cc1ccc(O)cc1)NC(=O)[C@@H](NC(=O)[C@H](CO)NC(=O)[C@H](Cc1ccc(O)cc1)NC(=O)[C@H](CC(=O)O)NC(=O)[C@H](CO)NC(=O)[C@@H](NC(=O)[C@H](Cc1ccccc1)NC(=O)[C@@H](NC(=O)CNC(=O)[C@H](CCC(=O)O)NC(=O)CCNC(=O)CCN1CCCCC1=O)[C@@H](C)O)[C@@H](C)O)[C@@H](C)CC)C(C)C)C(N)=O)C(=O)O [Compound 9]
GLP-1R [1]; [3]
  EC50: > 1000 nM
GIP-R; Table 3
  Emax: 48%
GIP-R; [4]
  EC50: 1 to 10 nM
GIP-R; Table 3A
  Emax: 48%
GIP-R; [5]
  EC50: 1 to 10 nM
GLP-1R [2]; Table 3
  Emax: 100%
GLP-1R [2]; [6]
  EC50: < 0.1 nM
GLP-1R [2]; Table 3A
  Emax: 100%
GLP-1R [2]; [7]
  EC50: < 0.1 nM
